Measurements from ChEMBL document CHEMBL5346872 (Eur J Med Chem, 2023).
pIC50: −log10 of the molar value.

What was measured:
[1] = target: T1, beta-catenin-B-cell lymphoma 9 protein complex (Homo sapiens, UniProt P35222); experiment: Inhibition of beta-catenin (unknown origin) to BCL9-FAM (unknown origin) protein-protein interaction preincubated for 2 hrs followed by BCL9 addition and measured after 2 hrs by fluorescence polarization assay; type: protein-complex assay
T1 sequence (P35222 whole entry): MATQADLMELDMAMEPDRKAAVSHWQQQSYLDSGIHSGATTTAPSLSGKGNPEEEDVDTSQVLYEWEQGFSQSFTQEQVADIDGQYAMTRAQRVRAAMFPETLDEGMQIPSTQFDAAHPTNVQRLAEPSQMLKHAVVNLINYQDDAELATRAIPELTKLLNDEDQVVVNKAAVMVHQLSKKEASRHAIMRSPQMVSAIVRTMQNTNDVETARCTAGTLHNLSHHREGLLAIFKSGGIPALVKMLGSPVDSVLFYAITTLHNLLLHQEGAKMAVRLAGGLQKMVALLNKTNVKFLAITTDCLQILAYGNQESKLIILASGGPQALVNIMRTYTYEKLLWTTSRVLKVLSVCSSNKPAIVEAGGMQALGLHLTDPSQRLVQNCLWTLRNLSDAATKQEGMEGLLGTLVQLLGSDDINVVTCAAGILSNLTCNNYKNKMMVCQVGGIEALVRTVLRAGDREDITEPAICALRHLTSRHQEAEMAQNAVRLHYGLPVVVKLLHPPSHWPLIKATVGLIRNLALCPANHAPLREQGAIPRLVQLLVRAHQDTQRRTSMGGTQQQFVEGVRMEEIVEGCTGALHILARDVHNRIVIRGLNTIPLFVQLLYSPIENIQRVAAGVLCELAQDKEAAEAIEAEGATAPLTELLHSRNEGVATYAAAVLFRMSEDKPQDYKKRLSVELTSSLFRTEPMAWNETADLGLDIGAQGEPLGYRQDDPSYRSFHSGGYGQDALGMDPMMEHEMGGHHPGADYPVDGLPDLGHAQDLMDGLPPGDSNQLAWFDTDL
T1 sequence (O00512 whole entry): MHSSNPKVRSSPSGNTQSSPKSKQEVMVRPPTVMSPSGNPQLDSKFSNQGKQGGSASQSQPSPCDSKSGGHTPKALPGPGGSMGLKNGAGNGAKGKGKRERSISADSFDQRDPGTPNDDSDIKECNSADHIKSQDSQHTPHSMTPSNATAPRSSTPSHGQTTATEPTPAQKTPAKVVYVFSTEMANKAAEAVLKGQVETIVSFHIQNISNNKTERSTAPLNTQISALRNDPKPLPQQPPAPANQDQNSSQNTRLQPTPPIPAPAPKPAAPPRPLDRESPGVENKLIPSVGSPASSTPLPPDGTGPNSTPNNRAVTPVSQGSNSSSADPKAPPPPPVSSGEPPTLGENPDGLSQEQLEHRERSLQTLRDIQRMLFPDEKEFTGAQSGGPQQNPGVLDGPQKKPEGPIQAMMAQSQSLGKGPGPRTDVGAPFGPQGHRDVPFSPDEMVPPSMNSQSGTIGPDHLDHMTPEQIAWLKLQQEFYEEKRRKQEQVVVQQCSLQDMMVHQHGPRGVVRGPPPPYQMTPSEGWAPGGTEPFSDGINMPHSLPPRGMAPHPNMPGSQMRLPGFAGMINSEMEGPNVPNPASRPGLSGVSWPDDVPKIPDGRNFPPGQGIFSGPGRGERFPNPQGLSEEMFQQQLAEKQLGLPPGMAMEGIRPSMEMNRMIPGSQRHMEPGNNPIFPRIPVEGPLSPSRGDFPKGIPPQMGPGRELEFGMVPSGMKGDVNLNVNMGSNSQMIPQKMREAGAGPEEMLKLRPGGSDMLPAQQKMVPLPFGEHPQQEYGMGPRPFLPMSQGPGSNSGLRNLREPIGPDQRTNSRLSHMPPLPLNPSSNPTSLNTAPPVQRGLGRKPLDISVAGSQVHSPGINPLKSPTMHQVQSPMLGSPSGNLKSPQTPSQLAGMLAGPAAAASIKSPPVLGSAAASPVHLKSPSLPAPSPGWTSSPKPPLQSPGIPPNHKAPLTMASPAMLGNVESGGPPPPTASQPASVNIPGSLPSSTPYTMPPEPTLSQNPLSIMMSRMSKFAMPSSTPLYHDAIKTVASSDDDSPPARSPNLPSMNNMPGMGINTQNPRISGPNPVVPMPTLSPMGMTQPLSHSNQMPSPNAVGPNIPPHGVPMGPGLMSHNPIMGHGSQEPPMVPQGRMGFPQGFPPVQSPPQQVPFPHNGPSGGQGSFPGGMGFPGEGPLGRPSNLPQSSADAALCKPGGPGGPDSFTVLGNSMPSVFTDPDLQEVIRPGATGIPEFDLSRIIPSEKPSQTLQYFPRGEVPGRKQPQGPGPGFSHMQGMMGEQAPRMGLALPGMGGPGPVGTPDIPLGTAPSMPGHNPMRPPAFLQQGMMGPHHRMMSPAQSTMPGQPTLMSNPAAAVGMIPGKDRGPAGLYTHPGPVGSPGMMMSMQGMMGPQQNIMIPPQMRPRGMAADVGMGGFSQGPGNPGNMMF

[2] = Inhibition of Wnt/beta-catenin signaling in mouse CT26 cells assessed as reduction in Axin2 expression incubated for 24 hrs by qPCR analysis; conditions: CT26, 24 h
CT26 [3] = experiment: Antiproliferative activity against mouse CT26 cells assessed as reduction in cell viability incubated for 48 hrs by CCK-8 assay; conditions: CT26, 48 h
CT26 [4] = experiment: Antitumor activity against mouse CT26 cells implanted in BALB/c mouse assessed as tumor growth inhibition at 30 mg/kg, ip administered once daily and measured on day 14; type: functional; conditions: CT26, 336 h, time 14 day, read-out: TGI
[5] = Toxicity in BALB/c mouse assessed as body weight loss at 30 mg/kg, ip administered once daily measured after 14 days; type: organism-based; conditions: in vivo, 336 h, time 14 day

Question: With `COc1cc(OCCCN2CCN(C)CC2)c2c(=O)c(O)c(-c3ccc(O)c(O)c3)oc2c1` as the molecule, how does the pIC50 [1] read?
Answer: Its pIC50 is 5.01.

Question: With `CCN(CC)CCOc1cc(-c2oc3cc(O)cc(O)c3c(=O)c2O)ccc1O` as the molecule, how does the pIC50 [1] read?
Answer: Its pIC50 is 4.55.

Question: What about the pIC50 [2] of the same molecule?
Answer: Its pIC50 is 4.39.

Question: And the pIC50 (CT26 [3])?
Answer: The pIC50 was 4.93.

Question: With `CCN(CC)CCCOc1cc(-c2oc3cc(O)cc(O)c3c(=O)c2O)ccc1O` as the molecule, how does the pIC50 [1] read?
Answer: The pIC50 was 4.93.

Question: What about the pIC50 [2] of the same molecule?
Answer: The pIC50 was 4.95.

Question: And the pIC50 (CT26 [3])?
Answer: The pIC50 was 4.63.

Question: With `O=c1c(O)c(-c2ccc(O)c(OCCN3CCCCC3)c2)oc2cc(O)cc(O)c12` as the molecule, how does the pIC50 [1] read?
Answer: The pIC50 was 4.51.

Question: What about the pIC50 [2] of the same molecule?
Answer: The pIC50 was 4.64.

Question: What about the pIC50 (CT26 [3]) of the same molecule?
Answer: Its pIC50 is 5.06.

Question: With `O=c1c(O)c(-c2ccc(O)c(OCCCN3CCOCC3)c2)oc2cc(O)cc(O)c12` as the molecule, how does the pIC50 [2] read?
Answer: The pIC50 was 5.20.

Question: What about the pIC50 (CT26 [3]) of the same molecule?
Answer: The pIC50 was 5.11.

Question: What does the source list for `O=C1[C@H](Cc2ccc(O)cc2)N2C(=O)CCN(C(=O)NCc3ccccc3)[C@H]2CN1Cc1cccc2ccccc12`?
Answer: inhibition in vivo at 30 mg/kg (CT26 [4]): 40.8%; Activity [5]: Non-Toxic

Question: With `CN1CCN(CCOc2cc(-c3oc4cc(O)cc(O)c4c(=O)c3O)ccc2O)CC1` as the molecule, how does the pIC50 [1] read?
Answer: The pIC50 was 4.10.

Question: And the pIC50 [2]?
Answer: The pIC50 was 4.75.

Question: What about the pIC50 (CT26 [3]) of the same molecule?
Answer: Its pIC50 is 4.93.

Question: With `CN1CCN(CCCOc2cc(O)c3c(=O)c(O)c(-c4ccc(O)c(O)c4)oc3c2)CC1` as the molecule, how does the pIC50 [1] read?
Answer: Its pIC50 is 5.04.

Question: What does the source list for `O=c1c(O)c(-c2ccc(O)c(OCCCN3CCCCCC3)c2)oc2cc(O)cc(O)c12`?
Answer: pIC50 [1]: 4.70; pIC50 [2]: 4.46; pIC50 (CT26 [3]): 4.46

Question: Which results are given for `O=c1c(O)c(-c2ccc(O)c(OCCCN3CCCC3)c2)oc2cc(O)cc(O)c12`?
Answer: pIC50 [1]: 4.59; pIC50 [2]: 4.72; pIC50 (CT26 [3]): 5.20
